Data reported in the supplement of paper PMC8612539.
Values after ≈ are worked out from the molar mass of the structure shown.

System: Mannheimia haemolytica
Assay: minimum inhibitory concentration (MIC)
Procedure: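 Broth microdilution MIC (Sensititre BOPO7F bovine plate, CLSI methods) of 19 antimicrobials against field isolates of P. multocida, M. haemolytica, H. somni (deep nasopharyngeal swabs) and E. coli, Enterococcus spp. (rectal swabs) from weaned dairy heifers. Incubation 16-24 h at 35 C. MIC is the lowest concentration preventing visible growth. Values with <= or > lie at the tested range limits. Trimethoprim-sulfamethoxazole is given as the trimethoprim component of a 1:19 mixture.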

CC[C@H]1OC(=O)C[C@@H](O)[C@H](C)[C@@H](O[C@@H]2O[C@H](C)[C@@H](O[C@H]3C[C@@](C)(O)[C@@H](O)[C@H](C)O3)[C@H](N(C)C)[C@H]2O)[C@@H](CC=O)C[C@@H](C)C(=O)/C=C/C(C)=C/[C@@H]1CO[C@@H]1O[C@H](C)[C@@H](O)[C@@H](OC)[C@H]1OC [Tylosin]
Settings | minimum inhibitory concentration [µg/mL]
isolate (source animal id): 8 | > 32
isolate (source animal id): 13 | > 32
isolate (source animal id): 18 | > 32
isolate (source animal id): 21 | > 32
isolate (source animal id): 25 | > 32
isolate (source animal id): 27 | > 32
isolate (source animal id): 28 | > 32
isolate (source animal id): 30 | > 32
isolate (source animal id): 31 | > 32
isolate (source animal id): 32 | > 32
isolate (source animal id): 34 | > 32
isolate (source animal id): 36 | > 32
isolate (source animal id): 37 | > 32
isolate (source animal id): 40 | 32 (≈ 34.9 µM)
isolate (source animal id): 41 | > 32
isolate (source animal id): 43 | > 32
isolate (source animal id): 46 | > 32
isolate (source animal id): 49 | > 32
isolate (source animal id): 50 | > 32
isolate (source animal id): 51 | > 32
isolate (source animal id): 52 | > 32
isolate (source animal id): 53 | > 32
isolate (source animal id): 55 | 32 (≈ 34.9 µM)
isolate (source animal id): 56 | > 32
isolate (source animal id): 57 | > 32
isolate (source animal id): 100 | > 32
isolate (source animal id): 103 | > 32
isolate (source animal id): 107 | > 32
isolate (source animal id): 108 | > 32
isolate (source animal id): 112 | > 32
isolate (source animal id): 113 | > 32
isolate (source animal id): 121 | > 32
isolate (source animal id): 122 | > 32
isolate (source animal id): 123 | > 32
isolate (source animal id): 126 | > 32
isolate (source animal id): 133 | > 32
isolate (source animal id): 135 | > 32
isolate (source animal id): 138 | > 32
isolate (source animal id): 141 | > 32
isolate (source animal id): 142 | > 32
isolate (source animal id): 145 | > 32
isolate (source animal id): 149 | > 32
isolate (source animal id): 151 | > 32
isolate (source animal id): 152 | > 32
isolate (source animal id): 154 | > 32
isolate (source animal id): 159 | > 32
isolate (source animal id): 162 | > 32
isolate (source animal id): 170 | > 32
isolate (source animal id): 171 | > 32
isolate (source animal id): 172 | > 32
isolate (source animal id): 173 | > 32
isolate (source animal id): 179 | 32 (≈ 34.9 µM)
isolate (source animal id): 180 | > 32
isolate (source animal id): 183 | > 32
isolate (source animal id): 186 | > 32
isolate (source animal id): 187 | > 32
isolate (source animal id): 188 | > 32
isolate (source animal id): 190 | > 32
isolate (source animal id): 191 | > 32
isolate (source animal id): 192 | > 32
isolate (source animal id): 201 | > 32
isolate (source animal id): 202 | > 32
isolate (source animal id): 209 | > 32
isolate (source animal id): 211 | > 32
isolate (source animal id): 220 | > 32
isolate (source animal id): 221 | > 32
isolate (source animal id): 223 | > 32
isolate (source animal id): 233 | > 32
isolate (source animal id): 237 | > 32
isolate (source animal id): 241 | > 32
isolate (source animal id): 252 | > 32
isolate (source animal id): 253 | > 32
isolate (source animal id): 259 | > 32
isolate (source animal id): 260 | > 32
isolate (source animal id): 262 | > 32
isolate (source animal id): 282 | > 32
isolate (source animal id): 287 | > 32
isolate (source animal id): 288 | > 32
isolate (source animal id): 291 | > 32
isolate (source animal id): 293 | > 32
isolate (source animal id): 298 | > 32
isolate (source animal id): 299 | > 32
isolate (source animal id): 300 | 32 (≈ 34.9 µM)
isolate (source animal id): 302 | > 32
isolate (source animal id): 304 | > 32
isolate (source animal id): 306 | > 32
isolate (source animal id): 308 | > 32
isolate (source animal id): 309 | > 32
isolate (source animal id): 313 | > 32
isolate (source animal id): 318 | > 32
isolate (source animal id): 320 | > 32
isolate (source animal id): 321 | > 32
isolate (source animal id): 323 | > 32
isolate (source animal id): 324 | > 32
isolate (source animal id): 326 | > 32
isolate (source animal id): 328 | > 32
isolate (source animal id): 329 | > 32
isolate (source animal id): 333 | > 32
isolate (source animal id): 335 | > 32
isolate (source animal id): 338 | > 32
